This passage reports IC50 and time to progression results from patent publication US8461199B2, “Transition metal complexes of a bis[thio-hydrazide amide] compound” (Synta Pharmaceuticals Corp., priority 2008, dated 2013).

The structures appear in SMILES notation. A value given as a limit tells only on which side of the number the result lay.

Test [1] has as its system M14 melanoma cells. The test can be described thus: Cytotoxicity in confluent M14 cells, cell viability by CCK8 assay. It counts as cell-based. Conditions: Homo sapiens, 48 h incubation, 0.25% DMSO, n=4. How it is done: M14 melanoma cells were seeded at 50,000 cells per well of 96-well plate in 100 μl of Dulbecco's minimum essential medium (DMEM) supplemented with 10% fetal bovine serum. Cells were cultured at 37° C. under 5% CO2-95% air. After 16 hours of incubation, the test compound was added to the cell culture. The compound was first diluted in 100% dimethyl sulfoxide (DMSO) at 400-fold of the final concentrations actually used in the assay. The DMSO solution was next diluted 20 fold with the culture medium, and then finally added to the assay wells at another 20-fold dilution. Assay medium included the test compound with concentrations as indicated with 0.25% DMSO. Cell viability was measured with a CCK8 assay (as described in the Technical Manual for Cell Counting Kit-8, Product #CK04-11, CK04-13 and CK04-20, Dojindo Molecular Technologies, Inc. MD, Tantular, I. S., et al. Tropical Medicine and International Health, 8(6), 569-574, 2003) in the last 15 minutes after a 48 h incubation with the test compound. Each bar of the figure expresses average percent inhibition against vehicle (0.25% DMSO) control (n=4).

The test system of test [2] is stage IV metastatic melanoma. Conditions: in combination with paclitaxel, relative to patients treated with paclitaxel alone; cited from earlier work.

For `CN(NC(=O)CC(=O)NN(C)C(=S)c1ccccc1)C(=S)c1ccccc1` [compound A, N-malonyl-bis(N′-methyl-N′-thiobenzoylhydrazide)], the IC50 (commonly the concentration needed to halve the response being measured) in test [1] is above 12.5 µM. Besides, the time to progression result in test [2] was “increase the time to progression”.
